BindingDB's records for doi:10.1007/s00044-013-0771-5 (n/a, 2013)

Molecular target: Prostaglandin G/H synthase 1/2 (Homo sapiens, UniProt P23219+P35354)
Experiment: Inhibition of COX (unknown origin)

Prostaglandin G/H synthase 1/2, sequence (P35354 whole entry): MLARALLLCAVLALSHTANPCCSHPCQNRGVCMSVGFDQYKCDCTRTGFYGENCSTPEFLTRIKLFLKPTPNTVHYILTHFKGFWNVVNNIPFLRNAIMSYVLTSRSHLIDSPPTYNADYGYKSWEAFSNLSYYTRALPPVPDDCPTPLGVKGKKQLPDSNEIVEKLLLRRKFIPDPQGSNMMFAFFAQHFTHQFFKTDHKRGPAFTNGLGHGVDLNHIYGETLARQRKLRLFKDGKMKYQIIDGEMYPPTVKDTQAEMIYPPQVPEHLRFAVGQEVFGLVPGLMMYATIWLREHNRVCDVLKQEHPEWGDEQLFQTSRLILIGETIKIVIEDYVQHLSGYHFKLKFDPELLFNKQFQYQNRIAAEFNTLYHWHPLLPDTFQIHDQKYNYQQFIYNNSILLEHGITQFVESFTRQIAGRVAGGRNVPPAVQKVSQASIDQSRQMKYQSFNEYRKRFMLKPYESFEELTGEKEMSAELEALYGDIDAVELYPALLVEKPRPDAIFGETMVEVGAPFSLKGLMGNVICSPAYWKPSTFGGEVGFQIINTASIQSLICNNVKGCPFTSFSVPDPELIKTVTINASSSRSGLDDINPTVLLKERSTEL
Prostaglandin G/H synthase 1/2, sequence (P23219 whole entry): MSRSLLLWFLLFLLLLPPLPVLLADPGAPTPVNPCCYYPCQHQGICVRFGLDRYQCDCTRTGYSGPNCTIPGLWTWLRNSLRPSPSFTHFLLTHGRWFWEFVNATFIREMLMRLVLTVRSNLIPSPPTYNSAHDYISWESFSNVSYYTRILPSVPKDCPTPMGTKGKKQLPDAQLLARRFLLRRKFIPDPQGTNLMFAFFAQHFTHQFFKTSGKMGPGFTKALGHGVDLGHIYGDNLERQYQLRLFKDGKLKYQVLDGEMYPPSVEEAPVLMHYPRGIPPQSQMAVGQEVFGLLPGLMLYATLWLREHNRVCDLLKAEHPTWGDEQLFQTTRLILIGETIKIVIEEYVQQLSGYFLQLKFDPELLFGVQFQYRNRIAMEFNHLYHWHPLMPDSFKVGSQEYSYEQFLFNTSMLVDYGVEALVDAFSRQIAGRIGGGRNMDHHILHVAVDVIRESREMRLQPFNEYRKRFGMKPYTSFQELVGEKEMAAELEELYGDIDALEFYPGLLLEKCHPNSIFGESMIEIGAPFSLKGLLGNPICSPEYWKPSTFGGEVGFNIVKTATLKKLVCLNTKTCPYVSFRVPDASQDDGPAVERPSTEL

Row | Structure (SMILES) | IC50
1 | O=C(O)Cc1cc(O)ccc1Nc1c(Cl)cccc1Cl [CHEBI:59612] | 447 µM
2 | O=C(O)Cc1cc(O)ccc1Nc1c(Cl)cc(O)cc1Cl [CHEBI:223401] | 912 µM
